From ChEMBL document CHEMBL1201862, “PubChem BioAssay data set” (2004)
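Exposure lasted 48 hours, with cells grown in 96-well plates and compounds tested at five concentrations. Here, GI50 denotes the concentration required for 50% inhibition of growth.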 Calls of active or inactive are those of the source. Cut-off read from the data, not from the text of the source: active = GI50 up to about 1.1 µM and inactive = higher.

Experiments:
Test in all cases: growth of human tumour cells (NCI), 48 h
[1] = test system: A549
[2] = test system: ACHN
[3] = test system: CAKI-1
[4] = test system: CCRF-CEM
[5] = test system: DU-145
[6] = test system: HCC 2998
[7] = test system: HCT-15
[8] = test system: LOX IMVI
[9] = test system: M14
[10] = test system: MDA-MB-231
[11] = test system: Malme-3M
[12] = test system: NCI-H460
[13] = test system: OVCAR-4
[14] = test system: RXF 393
[15] = test system: SK-MEL-28
[16] = test system: SK-MEL-5
[17] = test system: SK-OV-3
[18] = test system: SN12C
[19] = test system: U-251
[20] = test system: SNB-75

| Compound | GI50 [1] | GI50 [2] | GI50 [3] | GI50 [4] | GI50 [5] | GI50 [6] | GI50 [7] [µM] | GI50 [8] | GI50 [9] | GI50 [10] | GI50 [11] | GI50 [12] | GI50 [13] | GI50 [14] | GI50 [15] | GI50 [16] | GI50 [17] | GI50 [18] | GI50 [19] | GI50 [20] |
| --- | --- | --- | --- | --- | --- | --- | --- | --- | --- | --- | --- | --- | --- | --- | --- | --- | --- | --- | --- | --- |
| CC1=CC(=O)C2=C(C)CCC3C(C)C(=O)OC3C12 (configuration not stated) | > 100 µM (inactive) | > 100 µM (inactive) | > 100 µM (inactive) | > 100 µM (inactive) | > 100 µM (inactive) | > 100 µM (inactive) | > 100 | > 100 µM (inactive) | > 100 µM (inactive) | > 100 µM (inactive) | > 100 µM (inactive) | > 100 µM (inactive) | > 100 µM (inactive) | > 100 µM (inactive) | > 100 µM (inactive) | > 100 µM (inactive) | > 100 µM (inactive) | > 100 µM (inactive) | > 100 µM (inactive) |  |
| O=C(NCCCl)Nc1ccccc1 | > 100 µM (inactive) | > 100 µM (inactive) | > 100 µM (inactive) | > 100 µM (inactive) | > 100 µM (inactive) | > 100 µM (inactive) | > 100 | > 100 µM (inactive) |  | > 100 µM (inactive) | > 100 µM (inactive) | > 100 µM (inactive) | > 100 µM (inactive) | > 100 µM (inactive) | > 100 µM (inactive) | > 100 µM (inactive) | > 100 µM (inactive) | > 100 µM (inactive) | > 100 µM (inactive) | > 100 µM (inactive) |
| O=C1c2cc3c(cc2CC12Cc1ccc4c(c1C2=O)CCCC4)CCCC3 (configuration not stated) | 82.6 µM (inactive) | 48.1 µM (inactive) | > 100 µM (inactive) | > 100 µM (inactive) | > 100 µM (inactive) | > 100 µM (inactive) | > 100 | > 100 µM (inactive) | > 100 µM (inactive) | 48.3 µM (inactive) | 21.5 µM (inactive) | 97.9 µM (inactive) | 25.9 µM (inactive) | 42 µM (inactive) | > 100 µM (inactive) | > 100 µM (inactive) | 32.8 µM (inactive) |  | 24 µM (inactive) | 69.8 µM (inactive) |
| COc1ccc(/C=C2\C[C@H]3[C@@H]4CCC5=C/C(=N/O)CC[C@]5(C)[C@H]4CC[C@]3(C)\C2=N\O)cc1 | 5.01 µM (inactive) | 5.52 µM (inactive) | 38.3 µM (inactive) |  | 13.4 µM (inactive) | 15.8 µM (inactive) | 10.6 | 17.9 µM (inactive) | 12.4 µM (inactive) | 31.6 µM (inactive) | 34.1 µM (inactive) | 6.59 µM (inactive) | 25.7 µM (inactive) | 7.1 µM (inactive) | 61.8 µM (inactive) | 11 µM (inactive) | 42.7 µM (inactive) | 14.1 µM (inactive) | 25.3 µM (inactive) | 19.7 µM (inactive) |
| COc1cc(OCc2nc3ccccc3n3cccc23)cc(OC)c1OC | 20.3 µM (inactive) | 21.6 µM (inactive) | 29.7 µM (inactive) | 8.49 µM (inactive) | 55.8 µM (inactive) | 43.8 µM (inactive) | 8.09 | 22.2 µM (inactive) | 20.7 µM (inactive) | 40.6 µM (inactive) | 20.6 µM (inactive) | 20.5 µM (inactive) | 10.8 µM (inactive) | > 100 µM (inactive) | 22.1 µM (inactive) | 2.42 µM (inactive) | 40.6 µM (inactive) | 47 µM (inactive) | 23.3 µM (inactive) | > 93.5 µM (inactive) |
| COC(=O)c1ccc(CN2CCc3c([nH]c4ccccc34)C2CO)o1 (configuration not stated) | > 10 µM (inactive) |  | > 10 µM (inactive) | > 10 µM (inactive) | > 10 µM (inactive) | > 10 µM (inactive) | > 10 |  | > 10 µM (inactive) | > 10 µM (inactive) | > 10 µM (inactive) |  | > 10 µM (inactive) | > 10 µM (inactive) | > 10 µM (inactive) | > 10 µM (inactive) | > 10 µM (inactive) | > 10 µM (inactive) |  | > 10 µM (inactive) |
| CC1CCc2sc3nc(S)n(C)c(=O)c3c2C1 (configuration not stated) | 33.6 µM (inactive) | 37.3 µM (inactive) | 39.2 µM (inactive) |  | 50.8 µM (inactive) | 22.2 µM (inactive) | 39.5 | 33.7 µM (inactive) | 34.3 µM (inactive) | 36.7 µM (inactive) | 53.6 µM (inactive) | 35.4 µM (inactive) | 35.2 µM (inactive) | 57.9 µM (inactive) | 58.5 µM (inactive) | 35.1 µM (inactive) | 81.3 µM (inactive) | 36.5 µM (inactive) | 41.8 µM (inactive) | 35.9 µM (inactive) |
| Cc1ccc(Nc2c(C#N)[n+]([O-])c3cc(Cl)ccc3[n+]2[O-])cc1 | 23.8 µM (inactive) | 11.2 µM (inactive) | 42 µM (inactive) | 3.23 µM (inactive) | > 100 µM (inactive) | 21.8 µM (inactive) | 5.15 | 6.85 µM (inactive) | 30.3 µM (inactive) | > 100 µM (inactive) | 79.3 µM (inactive) | 9.31 µM (inactive) | 24.1 µM (inactive) | > 22.1 µM (inactive) | > 100 µM (inactive) |  | 61.7 µM (inactive) | > 33.2 µM (inactive) | 29.3 µM (inactive) | 39.5 µM (inactive) |
| Cc1cccc2c1CC1(Cc3c(C)cccc3C1=O)C2=O | > 100 µM (inactive) | > 100 µM (inactive) | > 100 µM (inactive) | > 100 µM (inactive) | > 100 µM (inactive) | > 100 µM (inactive) | > 100 | > 100 µM (inactive) | > 100 µM (inactive) | > 100 µM (inactive) | > 100 µM (inactive) | > 100 µM (inactive) | > 100 µM (inactive) | > 100 µM (inactive) | > 100 µM (inactive) | > 100 µM (inactive) | > 100 µM (inactive) |  | > 100 µM (inactive) | > 100 µM (inactive) |
| C=CC(Br)(CBr)CCC1OC1(C)C (configuration not stated) | 23.1 µM (inactive) | 18.2 µM (inactive) | 19.5 µM (inactive) | 29.9 µM (inactive) | 25.3 µM (inactive) | 18.9 µM (inactive) |  | 5.47 µM (inactive) | 13.9 µM (inactive) | 11.8 µM (inactive) | 23.5 µM (inactive) | 14.2 µM (inactive) | 16.3 µM (inactive) | 9.23 µM (inactive) | 16.3 µM (inactive) | 14.2 µM (inactive) | 24.7 µM (inactive) | 16.6 µM (inactive) | 17 µM (inactive) | 17.2 µM (inactive) |
| COc1ccc(COCC[C@H](C)OC2OC(CO[Si](C)(C)C(C)(C)C)C(OC(=O)CCCN=[N+]=[N-])C(OC(=O)CCCN=[N+]=[N-])C2OC(=O)CCCN=[N+]=[N-])cc1 (some centres not stated) | > 100 µM (inactive) |  | 36.9 µM (inactive) | 17.5 µM (inactive) | > 100 µM (inactive) | 34.4 µM (inactive) | 28.4 | 25.2 µM (inactive) | 68.5 µM (inactive) | > 100 µM (inactive) | > 100 µM (inactive) | 55.5 µM (inactive) | 27.9 µM (inactive) | 98.2 µM (inactive) | > 100 µM (inactive) | 9.64 µM (inactive) | > 100 µM (inactive) | 78.3 µM (inactive) | 29.6 µM (inactive) | 14.2 µM (inactive) |
